pEC50, pIC50: −log10 of the molar value. Like-named read-outs stand apart in the source and are kept apart here.
Experiments:
MOP [1] = biological target: T1, MOP (Homo sapiens, UniProt P35372); assay: cAMP biosensor assay, MOP agonist mode; assay type: cell-based
NOP [2] = biological target: T2, NOP (Homo sapiens, UniProt P41146); assay: cAMP biosensor assay, NOP agonist mode; assay type: cell-based
MOP [3] = biological target: T1, MOP; assay: cAMP biosensor assay, MOP antagonist mode; assay type: cell-based
NOP [4] = biological target: T2, NOP; assay: cAMP biosensor assay, NOP antagonist mode; assay type: cell-based
[5] = blood-brain barrier penetration; conditions: in vivo
[6] = tested on: selected cytochrome P450 enzymes; assay: affinity for selected cytochrome P450 enzymes
[7] = HEK293-CNG cells expressing NOP, agonist mode, 11 point concentration-response, read-out: NOP Agonist EC50
[8] = HEK293-CNG cells expressing NOP, antagonist mode with 5 nM nociceptin, read-out: NOP Antagonist IC50

T2 sequence (P41146 whole entry): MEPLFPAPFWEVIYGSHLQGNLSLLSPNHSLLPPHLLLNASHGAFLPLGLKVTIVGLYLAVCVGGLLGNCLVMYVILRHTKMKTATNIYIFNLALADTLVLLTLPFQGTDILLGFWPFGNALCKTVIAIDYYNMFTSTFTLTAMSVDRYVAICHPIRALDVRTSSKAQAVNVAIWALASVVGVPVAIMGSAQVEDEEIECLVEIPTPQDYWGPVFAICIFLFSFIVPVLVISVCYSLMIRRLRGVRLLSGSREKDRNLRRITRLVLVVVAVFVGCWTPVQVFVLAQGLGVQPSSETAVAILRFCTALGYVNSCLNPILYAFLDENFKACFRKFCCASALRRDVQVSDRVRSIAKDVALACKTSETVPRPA
T1 sequence (P35372 whole entry): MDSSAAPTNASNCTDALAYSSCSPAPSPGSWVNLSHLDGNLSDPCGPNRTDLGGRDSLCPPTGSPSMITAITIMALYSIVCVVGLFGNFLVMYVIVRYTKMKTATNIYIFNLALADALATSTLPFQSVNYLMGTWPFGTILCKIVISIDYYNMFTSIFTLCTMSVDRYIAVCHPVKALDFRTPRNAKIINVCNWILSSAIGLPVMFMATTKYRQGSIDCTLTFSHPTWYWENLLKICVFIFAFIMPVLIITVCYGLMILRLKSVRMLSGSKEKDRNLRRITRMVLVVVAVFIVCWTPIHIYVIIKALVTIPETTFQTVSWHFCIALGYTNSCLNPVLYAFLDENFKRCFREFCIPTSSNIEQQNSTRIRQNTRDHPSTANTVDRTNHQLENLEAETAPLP

SMILES: c1ccc2c(c1)nc(C1CCNCC1)n2C1CCN(CC2CCCCCCC2)CC1 [Cpd 10]
- pEC50 (MOP [1]): 6.40
- pEC50 (NOP [2]; [7]): 5.46
- pIC50 (MOP [3]): < 5.00
- pIC50 (NOP [4]; [8]): < 5.00

SMILES: c1ccc2c(c1)nc([C@@H]1CCNC1)n2C1CCN(CC2CCCCCCC2)CC1 [Cpd 11]
- blood-brain barrier penetration [5]: 44%
- affinity for selected cytochrome P450 enzymes [6]: low affinity

SMILES: O[C@H]1CN[C@H](c2nc3ccccc3n2C2CCN(CC3CCCCCCC3)CC2)C1 [Cpd 18]
- pEC50 (MOP [1]): 6.24
- pEC50 (NOP [2]): 5.85
- pIC50 (NOP [4]): 5.11

SMILES: Fc1ccc2c(c1)nc([C@@H]1CCCNC1)n2C1CCN(CC2CCCCCCC2)CC1 [Cpd 30]
- pEC50 (MOP [1]): 6.64
- pEC50 (NOP [2]; [7]): 6.82
- pIC50 (MOP [3]): 5.52
- pIC50 (NOP [4]; [8]): 5.41

SMILES: Cc1ccc2c(c1)nc([C@@H]1CCNC1)n2C1CCN(CC2CCCCCCC2)CC1 [Cpd 41]
- pEC50 (MOP [1]): 5.23
- pEC50 (NOP [2]; [7]): 5.20
- pIC50 (MOP [3]): < 4.00
- pIC50 (NOP [4]; [8]): < 5.00

SMILES: CS(=O)(=O)c1ccc2c(c1)nc([C@@H]1CCNC1)n2C1CCN(CC2CCCCCCC2)CC1 [Cpd 44]
- pEC50 (NOP [2]; [7]): 5.48
- pIC50 (MOP [3]): < 5.00
- pIC50 (NOP [4]; [8]): < 5.00

SMILES: C1=CC2CC1CC2CN1CCC(n2c(C3CNC3)nc3ccccc32)CC1 (stereo not shown) [Cpd 47]
- pEC50 (MOP [1]): 6.52
- pEC50 (NOP [2]; [7]): 6.51
- pIC50 (MOP [3]): < 5.00
- pIC50 (NOP [4]; [8]): < 5.00

SMILES: CC1=C(CN2CCC(n3c(C4CNC4)nc4cc(F)ccc43)CC2)C(C)(C)CCC1 [Cpd 53]
- pEC50 (NOP [2]; [7]): 6.68
- pIC50 (MOP [3]): < 5.00
- pIC50 (NOP [4]; [8]): < 5.00

SMILES: c1ccc2c(c1)nc(C1CNC1)n2C1CCN(CC2CCCCC2)CC1 [Cpd 55]
- pEC50 (NOP [2]; [7]): 6.85
- pIC50 (MOP [3]): < 5.00
- pIC50 (NOP [4]; [8]): < 5.00

SMILES: CC1(C)[C@H]2CC=C(CN3CCC(n4c([C@@H]5CCCNC5)nc5ccccc54)CC3)[C@@H]1C2 [Cpd 58]
- pEC50 (NOP [2]; [7]): 5.80
- pIC50 (MOP [3]): < 5.00
- pIC50 (NOP [4]; [8]): < 5.00

SMILES: c1ccc(CN2CCC(n3c([C@@H]4CCNC4)nc4ccccc43)CC2)cc1 [Cpd 59]
- pEC50 (MOP [1]): 6.57
- pEC50 (NOP [2]; [7]): 6.43
- pIC50 (MOP [3]): < 5.00
- pIC50 (NOP [4]; [8]): < 5.00

Source: patent US9656994B2, “Substituted benzimidazoles as nociceptin receptor modulators” (The Scripps Research Institute, priority 2013, dated 2017)
